Experimental data taken from patent publication US20050148069A1, “IGF-1 instructs multipotent adult CNS neural stem cells to an oligodendroglial lineage” (priority 2003, published 2005).

Columns and labels:
[1] = test system: adult hippocampus-derived neural progenitor cells; test: in vitro differentiation analysis of neural progenitor cells (immunocytochemistry for lineage markers); format: cell-based, rat
Procedure: The neural progenitor cells isolated from the hippocampus of female Fischer 344 used in this study have been characterized previously (Gage et al., 1995; Palmer et al., 1997). The whole brain-derived neural stem cells from PIO ICR mice were isolated and cultured according to the methods as described, with slight modifications. Cells were cultured as previously described (Gage et al., 1995; Ray et al., 1993). Cells between passages 10 and 20 were used for in vitro differentiation analyses. To induce differentiation, cells were plated into 4-well chamber slides at a density of 55,000-75,000 cells per well and were allowed to proliferate in N2-supplemented (Invitrogen) DMEM:F12 (Omega Scientific) medium containing 20 ng/ml FGF-2 (PeproTech, Inc.) for 24 hours. FGF-2 was then withdrawn and cells were subsequently treated with differentiation media. […] For IGF-induction experiments, cells were trypsinized, washed with 1× PBS, and plated into insulin-free N2 medium. […] In some cultures, BrdU (2.5 μM, Sigma) was added to label dividing cells, and Q-VD-OPh (2 μM, Enzyme Systems Products) was added to prevent apoptosis.
Cells were fixed with 4% paraformaldehyde, followed by immunocytochemical staining as described (Palmer et al., 1999). Labeled cells were visualized using a Nikon E800 upright microscope or a Nikon E600 inverted microscope (Nikon Inc.) and a Spot RT CCD camera (Diagnostic Instruments Inc.). 4′,6-diamidino-2-phenylindole (DAPI) was used to identify individual cells. Quantification of cell phenotypes was with StereoInvestigator (MicroBrightfield Inc.); for each marker, 500-1000 cells were sampled systematically from standardized fields at 40×magnification. For quantification of live/dead cells, images were taken of cultures live-stained with propidum iodide (1 μg/ml; Molecular Probes) and Hoescht 33342 (1 μg/ml; Sigma) at 10×magnification, and cells were counted using Image-Pro (Media Cybernetics). The following primary antibodies were used: rabbit anti-Tuj1 (1:7500;Covance), mouse anti-RIP (1:25-1:75; Hybridoma Bank); guinea pig anti-GFAP (1:500-1:2500; Advanced Immunochemical, Inc.); rabbit anti-MBP (1:500; Chemicon International Inc.), rat anti-BrdU (1:400; Accurate). Secondary antibodies were all from Jackson ImmunoResearch and used at 1:250 dilution. The detection of BrdU in cultured cells required treatment in 2 N HCL at 37° C. for 30 min (Palmer et al., 1999). All experiments were independently replicated at least 3 times.

[2] = test system: adult hippocampus-derived neural progenitor cells; test: cell death by live staining with propidium iodide and Hoechst 33342; format: cell-based, rat; conditions: 500 ng/ml IGF-I
Procedure: We first directly measured the effect of IGF-I on cell survival. We asked whether a selective decrease in the death of oligodendrocytes (and/or oligodendrocyte progenitors) could explain the net increase in number of oligodendrocytes (defined by the expression of RIP, a marker of both immature and mature oligodendrocytes). […] To quantify cell death of the progeny of neural progenitor cells, living cultures were stained with propidium iodide (1 μg/ml), which stains dead cells, and Hoechst 33342 (1 μg/ml), which stains live and dead cells. Staining of live, rather than fixed, cultures was used to avoid underestimating cell death due to possible detachment of dying and/or dead cells from culture substrates. […]
Cells were fixed with 4% paraformaldehyde, followed by immunocytochemical staining as described (Palmer et al., 1999). […] Quantification of cell phenotypes was with StereoInvestigator (MicroBrightfield Inc.); for each marker, 500-1000 cells were sampled systematically from standardized fields at 40×magnification. For quantification of live/dead cells, images were taken of cultures live-stained with propidum iodide (1 μg/ml; Molecular Probes) and Hoescht 33342 (1 μg/ml; Sigma) at 10×magnification, and cells were counted using Image-Pro (Media Cybernetics). […]

Substance: IGF-I: human recombinant IGF-I (R&D Systems), growth factor polypeptide
- RIP+ cells ([1]; 500 ng/ml IGF-1 added to Q-VD-OPh-treated 2-day cultures): large increase in RIP+ cells
- total cells positive for myelin basic protein (MBP) ([1]; 500 ng/ml IGF-I, 4-day time point): Approximately 23%
- overall number of RIP+ cells over time ([1]; 500 ng/ml IGF-I, 12 h to 48 h): progressive increase in the overall number of RIP+ cells over time
- percentage of RIP+ cells ([1]; 500 ng/ml, 4 days, insulin-free N2 medium): 45-55%
- dose dependence of oligodendrocyte differentiation ([1]; 20-500 ng/ml, 4-day cultures): occurred in a dose-dependent manner
- percentage of Tuj1-positive cells across tested concentrations ([1]; 20-500 ng/ml, 4-day cultures): did not appear to change
- rank order of potency for oligodendrocyte differentiation ([1]; different concentrations (20-1000 ng/ml)): IGF-I>IGF-II>insulin
- GFAP+ astrocytes ([1]; each at 500 ng/ml, 4 days): few to no GFAP+ astrocytes
- oligodendrocyte-promoting effects in other rat lines ([1]; independently derived rat hippocampus progenitor cell line and clonally derived line (unpublished data)): confirmed
- percentage of dead/dying cells ([2]; every 12 hours up to 48 h): relatively small percentage of dead/dying cells
- change in the percentage of cells that died between time points ([2]; one-way ANOVA): no significant change
